Test results from PubChem BioAssay AID2060619 (Molecular Pharmacology Branch, DTP, NCI, 2025).
Each block holds one compound with its values, some of them ahead of it.

Tested on: 323965-272-R-J2-PDC complex spheroid viability
Assay: Anticancer human tumor 323965-272-R-J2-PDC patient-derived pancreatic carcinoma cell line growth inhibition [CLK]
Details: for IC50: curve of first compound; for viability, T/C: stronger effect = lower value
Summary of the method: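 Multi-cell-type spheroids combined patient-derived tumor cells with HUVEC endothelial cells and human mesenchymal stem cells. Paired agents were dosed in half-log steps down from about clinical Cmax, or from 10 microM where Cmax was unknown.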

[1] = second compound 0.0316 µM, first compound 0.0316 µM
[2] = second compound 0.0316 µM, first compound 0.1 µM
[3] = second compound 0.0316 µM, first compound 0.316 µM
[4] = second compound 0.0316 µM, first compound 1 µM
[5] = second compound 0.0316 µM, first compound 3.16 µM
[6] = second compound 0.0316 µM, first compound 10 µM
[7] = second compound 0.1 µM, first compound 0.0316 µM
[8] = second compound 0.1 µM, first compound 0.1 µM
[9] = second compound 0.1 µM, first compound 0.316 µM
[10] = second compound 0.1 µM, first compound 1 µM
[11] = second compound 0.1 µM, first compound 3.16 µM
[12] = second compound 0.1 µM, first compound 10 µM
[13] = second compound 0.316 µM, first compound 0.0316 µM
[14] = second compound 0.316 µM, first compound 0.1 µM
[15] = second compound 0.316 µM, first compound 0.316 µM
[16] = second compound 0.316 µM, first compound 1 µM
[17] = second compound 0.316 µM, first compound 3.16 µM
[18] = second compound 0.316 µM, first compound 10 µM
[19] = second compound 1 µM, first compound 0.0316 µM
[20] = second compound 1 µM, first compound 0.1 µM
[21] = second compound 1 µM, first compound 0.316 µM
[22] = second compound 1 µM, first compound 1 µM
[23] = second compound 1 µM, first compound 3.16 µM
[24] = second compound 1 µM, first compound 10 µM
[25] = second compound 3.16 µM, first compound 0.0316 µM
[26] = second compound 3.16 µM, first compound 0.1 µM
[27] = second compound 3.16 µM, first compound 0.316 µM
[28] = second compound 3.16 µM, first compound 1 µM
[29] = second compound 3.16 µM, first compound 3.16 µM
[30] = second compound 3.16 µM, first compound 10 µM
[31] = second compound 10 µM, first compound 0.0316 µM
[32] = second compound 10 µM, first compound 0.1 µM
[33] = second compound 10 µM, first compound 0.316 µM
[34] = second compound 10 µM, first compound 1 µM
[35] = second compound 10 µM, first compound 3.16 µM
[36] = second compound 10 µM, first compound 10 µM
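Note: spheroids exposed to agents for seven days before readout.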
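Throughout, for viability, T/C: percent of DMSO vehicle control wells so 100% = untreated growth.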

IC50 (second compound 0.0316 µM): > 10000 nM
IC50 (second compound 0.1 µM): > 10000 nM
IC50 (second compound 0.316 µM): > 10000 nM
IC50 (second compound 1 µM): > 10000 nM
IC50 (second compound 3.16 µM): < 31.6 nM
IC50 (second compound 10 µM): < 31.6 nM
Structure (SMILES): CCCS(=O)(=O)Nc1ccc(F)c(C(=O)c2c[nH]c3ncc(-c4ccc(Cl)cc4)cc23)c1F + CNC(=O)c1ccc(Nc2nc(OC3CCCC3)c3c(-c4ccc5nc(C)oc5c4)c[nH]c3n2)c(OC)c1
viability, T/C [1]: 106%
viability, T/C [2]: 113%
viability, T/C [3]: 116%
viability, T/C [4]: 127%
viability, T/C [5]: 127%
viability, T/C [6]: 106%
viability, T/C [7]: 94.3%
viability, T/C [8]: 88.2%
viability, T/C [9]: 97.5%
viability, T/C [10]: 98.3%
viability, T/C [11]: 90%
viability, T/C [12]: 79.9%
viability, T/C [13]: 72.5%
viability, T/C [14]: 74.8%
viability, T/C [15]: 78%
viability, T/C [16]: 78.8%
viability, T/C [17]: 88.8%
viability, T/C [18]: 72%
viability, T/C [19]: 47.8%
viability, T/C [20]: 59.6%
viability, T/C [21]: 64.8%
viability, T/C [22]: 71%
viability, T/C [23]: 60.9%
viability, T/C [24]: 60.2%
viability, T/C [25]: 47.6%
viability, T/C [26]: 54.7%
viability, T/C [27]: 53.6%
viability, T/C [28]: 49.2%
viability, T/C [29]: 61.5%
viability, T/C [30]: 59.2%
viability, T/C [31]: 42.5%
viability, T/C [32]: 50.6%
viability, T/C [33]: 47.8%
viability, T/C [34]: 58.8%
viability, T/C [35]: 67.2%
viability, T/C [36]: 61.4%

IC50 (second compound 0.0316 µM): 2200 nM
IC50 (second compound 0.1 µM): 1370 nM
IC50 (second compound 0.316 µM): 580 nM
IC50 (second compound 1 µM): < 31.6 nM
IC50 (second compound 3.16 µM): < 31.6 nM
IC50 (second compound 10 µM): 53.1 nM
Structure (SMILES): COC1C=CCC(C)C(C)S(=O)(=O)NC(=O)c2ccc3c(c2)N(CC2CCC21)CC1(CCCc2cc(Cl)ccc21)CO3 (centres undefined) + CNC(=O)c1ccc(Nc2nc(OC3CCCC3)c3c(-c4ccc5nc(C)oc5c4)c[nH]c3n2)c(OC)c1
viability, T/C [1]: 106%
viability, T/C [2]: 119%
viability, T/C [3]: 85.4%
viability, T/C [4]: 68.3%
viability, T/C [5]: 43.9%
viability, T/C [6]: 23.2%
viability, T/C [7]: 105%
viability, T/C [8]: 86.5%
viability, T/C [9]: 68.8%
viability, T/C [10]: 57.4%
viability, T/C [11]: 36.8%
viability, T/C [12]: 25.1%
viability, T/C [13]: 74.1%
viability, T/C [14]: 62%
viability, T/C [15]: 56.9%
viability, T/C [16]: 42.3%
viability, T/C [17]: 39.1%
viability, T/C [18]: 21.4%
viability, T/C [19]: 47.6%
viability, T/C [20]: 47.8%
viability, T/C [21]: 39.1%
viability, T/C [22]: 37.4%
viability, T/C [23]: 30.7%
viability, T/C [24]: 21.5%
viability, T/C [25]: 46.1%
viability, T/C [26]: 43.5%
viability, T/C [27]: 36.7%
viability, T/C [28]: 29.7%
viability, T/C [29]: 28.4%
viability, T/C [30]: 20.7%
viability, T/C [31]: 54.7%
viability, T/C [32]: 45.3%
viability, T/C [33]: 32.8%
viability, T/C [34]: 29.2%
viability, T/C [35]: 24.8%
viability, T/C [36]: 18.1%
